Measurements as given in patent publication US4387101A, “Thiazolidine derivatives and their use” (Takeda Chemical Industries, Ltd., priority 1980, dated 1983).

Columns and labels:
[1] = single-dose lethality test in mice; type: in vivo; settings: 2500 mg/kg once; groups of 5 mice
Description: In a test in mice (each group consisting of 5 mice), when the compounds (I), for example, 5-(3-ethoxy-4-pentyloxyphenyl)thiazolidine-2,4-dione and 5-(3-ethoxy-4-isopentyloxyphenyl)thiazolidine-2,4-dione were administered at a dose of 2500 mg/kg once, no mouse died.

rat lens = test: swelling inhibitory effect in rat lens culture assay; type: cell-based; settings: 10^-6 M
Description: The swelling inhibitory effect of each compound in a rat lens culture assay was evaluated by the method described in H. Obazawa et al., Invest. Ophthalmol Vol. 13, Nr. 3, 204 (1974).
The result for each compound was expressed as the % inhibition of swelling into the lens at the concentration of 10^-6 mole and are shown in Table 3.

aldose reductase = target: T1, aldose reductase (Homo sapiens, UniProt P15121); test: aldose reductase activity, partially purified preparation from human placenta; type: biochemical; settings: 10^-6 M
T1 construct: partially purified aldose reductase preparation from human placenta; from tissue; host or cells: human placenta
Description: The effect of the thiazolidine derivative (I) on aldose reductase activity was assayed after the method described in S. Haymen et al., Journal of Biological Chemistry, Vol. 240, 877 (1965) and Jin H. Kinoshita et al., Metabolism, Vol. 28, Nr. 4, Suppl 1, 462 (1979), etc. The enzyme used in the assay was a partially purified aldose reductase preparation from human placenta. The results for the respective compounds were expressed as % inhibition at the concentration of 10^-6 mole and are shown in Table 2.

inhibition at 1 µM (aldose reductase) [%] | Compound | death of mice [1] | inhibition at 1 µM (rat lens) [%]
 | CCOc1cc(C2SC(=O)NC2=O)ccc1OCCC(C)C (stereo not drawn) [5-(3-ethoxy-4-isopentyloxyphenyl)thiazolidine-2,4-dione] | no mouse died | 
35.8 | Cc1ccc(C2SC(=O)NC2=O)cc1C (stereo not drawn) [Example 5, 5-(3,4-dimethylphenyl)thiazolidine-2,4-dione] |  | 
57.1 | COc1ccc(C2SC(=O)NC2=O)cc1OC (stereo not drawn) [Example 10 - No. 1] |  | 30.3
57 | CCOc1ccc(C2SC(=O)NC2=O)cc1OCC (stereo not drawn) [Example 10 - No. 2] |  | 37
51.6 | CCOc1cc(C2SC(=O)NC2=O)ccc1O (stereo not drawn) [Example 10 - No. 3] |  | 
59 | CCOc1cc(C2SC(=O)NC2=O)ccc1OC(C)=O (stereo not drawn) [Example 10 - No. 4] |  | 23.7
76.9 | CC(=O)Oc1ccc(C2SC(=O)NC2=O)cc1OC(C)=O (stereo not drawn) [Example 10 - No. 5] |  | 
41.8 | O=C1NC(=O)C(c2ccc(O)c(O)c2)S1 (stereo not drawn) [Example 10 - No. 6] |  | 
47.4 | O=C1NC(=O)C(c2ccc3c(c2)OCO3)S1 (stereo not drawn) [Example 10 - No. 7] |  | 
51.7 | CCCCOc1ccc(C2SC(=O)NC2=O)cc1OCCCC (stereo not drawn) [Example 10 - No. 8] |  | 
55.2 | CCCCOc1ccc(C2SC(=O)NC2=O)cc1OCC (stereo not drawn) [Example 10 - No. 9] |  | 
53.5 | CCCOc1ccc(C2SC(=O)NC2=O)cc1OCCC (stereo not drawn) [Example 10 - No. 10] |  | 
37.7 | CCCCCCOc1ccc(C2SC(=O)NC2=O)cc1OCC (stereo not drawn) [Example 10 - No. 12] |  | 33
28 | CCOc1cc(C2SC(=O)NC2=O)ccc1OCC(C)(C)C (stereo not drawn) [Example 10 - No. 14] |  | 57.2
60.6 | CCOc1cc(C2SC(=O)NC2=O)ccc1OCCCC(C)C (stereo not drawn) [Example 10 - No. 15] |  | 
38.7 | CCCCOc1ccc(C2SC(=O)NC2=O)cc1OC (stereo not drawn) [Example 10 - No. 16] |  | 
40.6 | CCCCCOc1ccc(C2SC(=O)NC2=O)cc1OC (stereo not drawn) [Example 10 - No. 17] |  | 
32.2 | CCCCCCOc1ccc(C2SC(=O)NC2=O)cc1OC (stereo not drawn) [Example 10 - No. 18] |  | 
68.1 | COc1cc(C2SC(=O)NC2=O)ccc1OCCCC(C)C (stereo not drawn) [Example 10 - No. 19] |  | 
30 | CCCCCOc1cc(C2SC(=O)NC2=O)ccc1OC (stereo not drawn) [Example 10 - No. 20] |  | 

Compound | inhibition at 1 µM (aldose reductase) [%] | death of mice [1] | inhibition at 1 µM (rat lens) [%]
CCCCCOc1ccc(C2SC(=O)NC2=O)cc1OCC (stereo not drawn) [Example 4, 5-(3-ethoxy-4-pentyloxyphenyl)-thiazolidine-2,4-dione] | 34.6 | no mouse died | 44.6
CCOc1cc(C2SC(=O)NC2=O)ccc1OCCC(C)C (stereo not drawn) [Example 10 - No. 13] | 34 |  | 25.3
